Key:
[1] = tested on: Chick type II collagen (CII)-induced rheumatoid arthritis (RA); experiment: Evaluation of RA severity (visual arthritis scoring), collagen-induced RA; format: in vivo, DBA/1 mice; conditions: mice, 100 μL intraperitoneal once daily for 20 days, scored every 3 days, 21st to 42nd day, FIG. 6
Procedure: Female DBA/1 mice (8 weeks old, with a body weight of approximately 20 g) used in the following experiments were purchased from National Laboratory Animal Center, Taipei City, Taiwan. All the experimental mice were housed in an animal room under the following laboratory conditions: an alternating 12-hour light and 12-hour dark cycle, a temperature maintained at 21° C. to 23° C., and a relative humidity maintained at 45% to 60%. Furthermore, water and feed were provided ad libitum for all the experimental mice. All experimental procedures involving the experimental mice were in compliance with the legal provision of the Institutional Animal Care and Use Committee of National Chung Hsing University, Taiwan, and were carried out according to the Guide for the Care and Use of Laboratory Animals of National Institutes of Health (NIH). […]
At the end of the 21st day after the initial immunization, the pathological symptoms (i.e., erythema and edema in the sole joint, ankle, and knee joint) in the respective mouse was assessed according to the visual arthritis scoring system described in Brand D. D. et al. (2007), Nat. […] Thereafter, the abovementioned visual arthritis scoring system was performed every 3 days until the 42nd day after the initial immunization (i.e., each mouse was scored 8 times). The degree of RA severity was scored on a scale from 1 to 8. […]

[2] = tested on: serum COMP, TNF-α, IL-1β, IL-6, IL-17A, PGE2 and NO in MIA-induced OA; experiment: OA biomarkers and inflammatory markers in serum sample (ELISA, Griess assay), MIA-induced OA; format: in vivo, Sprague Dawley rats; conditions: rat serum; for content of cartilage oligomeric matrix protein (COMP): day 28, FIG. 3; for content of IL-1β / content of IL-6 / content of IL-17A / content of TNF-α: day 28, FIG. 4; for content of PGE2: day 28, FIG. 5; for content of NO: day 28, Griess assay, FIG. 5
Procedure: The Sprague Dawley rats were divided into five groups, including one normal control group, one pathological control group, one comparative group, and two experimental groups (i.e., experimental groups 1 to 2) (n=5 rats in each group).
The right knee joint of the respective rat in the pathological control group, the comparative group, and the experimental groups 1 and 2 was intraarticularly injected with 30 μL of a monosodium iodoacetate (MIA) solution (50 g/L, in 0.9% normal saline). In addition, the right knee joint of the respective rat in the normal control group was intraarticularly injected with 30 μL of 0.9% normal saline.
On day 3 and day 14 after injection of the MIA solution, the right knee joint of the respective rat in the comparative group was intraarticularly injected with 30 μL of 1% HA, the right knee joint of the respective rat in the experimental group 1 was intraarticularly injected with 30 μL of the EGF solution (containing 20 μg/g EGF), the right knee joint of the respective rat in the experimental group 2 was intraarticularly injected with 30 μL of the mixture solution (containing 20 μg/g EGF), and the right knee joint of the respective rat in the pathological control group was intraarticularly injected with 30 μL of 0.9% normal saline. In addition, the rats of the normal control group received no treatment.
After determining the diameter of right knee joint at the end of day 28 as described in section D of this example, the rats in each group were sacrificed by virtue of 95% CO2 asphyxiation. Next, a blood sample was collected from the heart of each rat through arterial puncture using a 25G needle, and was then subjected to centrifugation at 1,500 g and 25° C. for 10 minutes, so as to obtain a serum sample. Thereafter, the right knee joint tissue of the respective rat in each group was obtained from each rat carcass and was washed with 0.9% normal saline.
The respective serum sample obtained in section E of this example was diluted 5-fold with RPMI 1640 medium. Thereafter, the content of cartilage oligomeric matrix protein (COMP) was determined using a rat COMP ELISA Kit (Cusabio, Cat. No. CSB-E13833r) in accordance with the manufacturer's instructions. In addition, the contents of TNF-α, IL-1β, IL-6, and IL-17A were respectively determined using a TNF-α ELISA Kit (Invitrogen, Cat. No. 88-7340-88), an IL-1β ELISA Kit (Invitrogen, Cat. No. 88-6010-22), an IL-6 ELISA Kit (Invitrogen, Cat. No. 88-50625-88), and an IL-17A ELISA Kit (Invitrogen, Cat. No. 88-7170-22) in accordance with the manufacturer's instructions. The content of prostaglandin E2 (PGE2) was determined using a PGE2 ELISA Kit (Cusabio, Cat. No. CSB-E07967r) in accordance with the manufacturer's instructions.
Moreover, the content of nitric oxide (NO) was determined using the Griess assay. Briefly, 100 μL of the respective serum sample obtained in section E of this example was mixed with 100 μL of a Griess reagent (containing 0.2% N-(1-Naphthyl)ethylenediamine, 2% sulfanilamide, and 5% phosphoric acid), followed by being left standing for reaction to proceed at room temperature for 10 minutes. The resultant reaction mixture was subsequently subjected to determination of absorbance at a wavelength of 540 nm (OD540) using a spectrophotometer. The OD540 values obtained were subsequently converted to concentration expressed in pg/mL based on a correlation curve previously prepared by plotting different known concentrations of sodium nitrate standards versus OD540 values thereof.
The data thus obtained were analyzed according to the method described in section 1 of “General Procedures”.

Substance | severity of RA (visual arthritis score, scale 1 to 8) [1] | content of cartilage oligomeric matrix protein (COMP) [2] | content of IL-1β [2] | content of IL-6 [2] | content of IL-17A [2] | content of TNF-α [2] | content of PGE2 [2] | content of NO [2]
EGF: Epidermal growth factor (Cat. No. 02-108, Joycom Bio-chem) dissolved in PBS, 20 μg/g EGF; given to experimental group 1 (NSDSECPLSHDGYCLHDGVCMYIEALDKYACNCVVGYIGERCQYRDLKWWELR; UniProt P01133 971-1023, looked up) | increased slowly | lower than that determined in the pathological control group | lower than those determined in the pathological control group | lower than those determined in the pathological control group | lower than those determined in the pathological control group | lower than those determined in the pathological control group | lower than those determined in the pathological control group | lower than those determined in the pathological control group
hyaluronic acid [HA, reference compound] | increased slowly | lower than that determined in the pathological control group | lower than those determined in the pathological control group | lower than those determined in the pathological control group | lower than those determined in the pathological control group | lower than those determined in the pathological control group | lower than those determined in the pathological control group | lower than those determined in the pathological control group

— patent US20230149510A1, “METHOD FOR ALLEVIATING ARTHRITIS USING EPIDERMAL GROWTH FACTOR” (Lovin BioMed Co., Ltd., priority 2021, published 2023)
